Experimental data: ChEMBL document CHEMBL1201862, “PubChem BioAssay data set” (2004)
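A five-concentration, 48-hour dose response in 96-well plates underlies each endpoint, interpolated linearly between surrounding concentrations. At the GI50, growth is halved.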 Activity calls are given as the source filed them. Cut-off read from the data, not from the text of the source: active = GI50 up to about 1.1 µM and inactive = higher.

How the values were obtained:
Assay in all cases: NCI-60 cell line screen, 48 h
TK-10 = test system: TK-10
ACHN = test system: ACHN
NCI/ADR-RES = test system: NCI/ADR-RES
BT-549 = test system: BT-549
RXF 393 = test system: RXF 393
NCI-H23 = test system: NCI-H23
NCI-H460 = test system: NCI-H460
MDA-MB-435 = test system: MDA-MB-435
OVCAR-4 = test system: OVCAR-4
SNB-75 = test system: SNB-75
EKVX = test system: EKVX
A549 = test system: A549
Malme-3M = test system: Malme-3M
OVCAR-5 = test system: OVCAR-5
Hs-578T = test system: Hs-578T
KM12 = test system: KM12
786-0 = test system: 786-0
HCT-116 = test system: HCT-116
SK-MEL-5 = test system: SK-MEL-5
UACC-62 = test system: UACC-62
HOP-62 = test system: HOP-62
M14 = test system: M14
COLO 205 = test system: COLO 205
U-251 = test system: U-251
OVCAR-8 = test system: OVCAR-8
RPMI-8226 = test system: RPMI-8226
SK-OV-3 = test system: SK-OV-3
UACC-257 = test system: UACC-257
MDA-MB-231 = test system: MDA-MB-231
SF-295 = test system: SF-295
HL-60 = test system: HL-60
SR = test system: SR
SK-MEL-2 = test system: SK-MEL-2
K562 = test system: K562
HCC 2998 = test system: HCC 2998
SF-539 = test system: SF-539
HCT-15 = test system: HCT-15
NCI-H226 = test system: NCI-H226
SK-MEL-28 = test system: SK-MEL-28
DU-145 = test system: DU-145
PC-3 = test system: PC-3
HT-29 = test system: HT-29
HOP-92 = test system: HOP-92
MOLT-4 = test system: MOLT-4
MCF7 = test system: MCF7
OVCAR-3 = test system: OVCAR-3
SW-620 = test system: SW-620
SN12C = test system: SN12C
NCI-H522 = test system: NCI-H522
LOX IMVI = test system: LOX IMVI
T47D = test system: T47D
SNB-19 = test system: SNB-19
MDA-N = test system: MDA-N
SF-268 = test system: SF-268
CAKI-1 = test system: CAKI-1
IGROV-1 = test system: IGROV-1
UO-31 = test system: UO-31
CCRF-CEM = test system: CCRF-CEM
A498 = test system: A498

Question: Which GI50 (TK-10) does the source give for `CC(C)(C)OC(=O)N1C(OP(=O)(Oc2ccccc2)Oc2ccccc2)=COc2cccnc21` here?
Answer: 31 µM (inactive)

Question: What about the GI50 (ACHN) of the same compound?
Answer: 29.9 µM (inactive)

Question: What about the GI50 (NCI/ADR-RES) of the same compound?
Answer: 40.7 µM (inactive)

Question: What about the GI50 (BT-549) of the same compound?
Answer: 63.7 µM (inactive)

Question: And the GI50 (RXF 393)?
Answer: 91.8 µM (inactive)

Question: And the GI50 (NCI-H23)?
Answer: 45.5 µM (inactive)

Question: What about the GI50 (NCI-H460) of the same compound?
Answer: 31.8 µM (inactive)

Question: And the GI50 (MDA-MB-435)?
Answer: 39.4 µM (inactive)

Question: And the GI50 (OVCAR-4)?
Answer: 45.8 µM (inactive)

Question: What about the GI50 (SNB-75) of the same compound?
Answer: 33.3 µM (inactive)

Question: And the GI50 (EKVX)?
Answer: 60.7 µM (inactive)

Question: What about the GI50 (A549) of the same compound?
Answer: 46.6 µM (inactive)

Question: What about the GI50 (Malme-3M) of the same compound?
Answer: 30.6 µM (inactive)

Question: What about the GI50 (OVCAR-5) of the same compound?
Answer: > 100 µM (inactive)

Question: And the GI50 (Hs-578T)?
Answer: 86.5 µM (inactive)

Question: And the GI50 (KM12)?
Answer: 31.4 µM (inactive)

Question: What about the GI50 (786-0) of the same compound?
Answer: 94.6 µM (inactive)

Question: What about the GI50 (HCT-116) of the same compound?
Answer: 51.2 µM (inactive)

Question: And the GI50 (SK-MEL-5)?
Answer: 18.4 µM (inactive)

Question: What about the GI50 (UACC-62) of the same compound?
Answer: 64.6 µM (inactive)

Question: And the GI50 (HOP-62)?
Answer: 60.5 µM (inactive)

Question: And the GI50 (M14)?
Answer: 37.1 µM (inactive)

Question: What about the GI50 (COLO 205) of the same compound?
Answer: 34.8 µM (inactive)

Question: What about the GI50 (U-251) of the same compound?
Answer: 40.5 µM (inactive)

Question: What about the GI50 (OVCAR-8) of the same compound?
Answer: 43.2 µM (inactive)

Question: And the GI50 (RPMI-8226)?
Answer: 21.8 µM (inactive)

Question: And the GI50 (SK-OV-3)?
Answer: 98.2 µM (inactive)

Question: And the GI50 (UACC-257)?
Answer: 30 µM (inactive)

Question: What about the GI50 (MDA-MB-231) of the same compound?
Answer: 71 µM (inactive)

Question: And the GI50 (SF-295)?
Answer: 34.7 µM (inactive)

Question: And the GI50 (HL-60)?
Answer: 16.2 µM (inactive)

Question: What about the GI50 (SR) of the same compound?
Answer: 27.3 µM (inactive)

Question: And the GI50 (SK-MEL-2)?
Answer: 22.3 µM (inactive)

Question: What about the GI50 (K562) of the same compound?
Answer: 44.9 µM (inactive)

Question: And the GI50 (HCC 2998)?
Answer: 42.1 µM (inactive)

Question: What about the GI50 (SF-539) of the same compound?
Answer: > 100 µM (inactive)

Question: What about the GI50 (HCT-15) of the same compound?
Answer: 48.8 µM

Question: What about the GI50 (NCI-H226) of the same compound?
Answer: 69.8 µM (inactive)

Question: And the GI50 (SK-MEL-28)?
Answer: 54.2 µM (inactive)

Question: What about the GI50 (DU-145) of the same compound?
Answer: > 100 µM (inactive)

Question: What about the GI50 (PC-3) of the same compound?
Answer: 84.5 µM (inactive)

Question: And the GI50 (HT-29)?
Answer: 82.6 µM (inactive)

Question: And the GI50 (HOP-92)?
Answer: 26.1 µM (inactive)

Question: What about the GI50 (MOLT-4) of the same compound?
Answer: 17.7 µM (inactive)

Question: What about the GI50 (MCF7) of the same compound?
Answer: 32.7 µM (inactive)

Question: And the GI50 (OVCAR-3)?
Answer: 72.3 µM (inactive)

Question: What about the GI50 (SW-620) of the same compound?
Answer: 38.9 µM (inactive)

Question: What about the GI50 (SN12C) of the same compound?
Answer: 70.1 µM (inactive)

Question: And the GI50 (NCI-H522)?
Answer: 47 µM (inactive)

Question: What about the GI50 (LOX IMVI) of the same compound?
Answer: 26.1 µM (inactive)

Question: And the GI50 (T47D)?
Answer: 23 µM (inactive)

Question: What about the GI50 (SNB-19) of the same compound?
Answer: 78.9 µM (inactive)

Question: And the GI50 (MDA-N)?
Answer: 36.3 µM (inactive)

Question: And the GI50 (SF-268)?
Answer: 63.2 µM (inactive)

Question: And the GI50 (CAKI-1)?
Answer: 40.3 µM (inactive)

Question: What about the GI50 (IGROV-1) of the same compound?
Answer: 42.6 µM (inactive)

Question: And the GI50 (UO-31)?
Answer: 42.9 µM (inactive)

Question: With `COc1cc(=O)oc(/C=C/C=C/C=C/C(C)=C\C2(C)OC(C)C(C)(O)C2O)c1C` (stereo unspecified) as the compound, how does the GI50 (TK-10) read?
Answer: > 100 µM (inactive)

Question: And the GI50 (ACHN)?
Answer: > 100 µM (inactive)

Question: And the GI50 (NCI/ADR-RES)?
Answer: > 100 µM (inactive)

Question: What about the GI50 (BT-549) of the same compound?
Answer: > 100 µM (inactive)

Question: And the GI50 (NCI-H23)?
Answer: > 100 µM (inactive)

Question: What about the GI50 (NCI-H460) of the same compound?
Answer: > 100 µM (inactive)

Question: And the GI50 (CCRF-CEM)?
Answer: > 100 µM (inactive)

Question: And the GI50 (MDA-MB-435)?
Answer: > 100 µM (inactive)

Question: What about the GI50 (SNB-75) of the same compound?
Answer: 68.7 µM (inactive)

Question: And the GI50 (EKVX)?
Answer: > 100 µM (inactive)

Question: And the GI50 (A549)?
Answer: > 100 µM (inactive)

Question: What about the GI50 (OVCAR-5) of the same compound?
Answer: > 100 µM (inactive)

Question: What about the GI50 (Hs-578T) of the same compound?
Answer: 0.923 µM (active)

Question: What about the GI50 (KM12) of the same compound?
Answer: 87.9 µM (inactive)

Question: And the GI50 (786-0)?
Answer: > 100 µM (inactive)

Question: What about the GI50 (HCT-116) of the same compound?
Answer: > 100 µM (inactive)

Question: And the GI50 (SK-MEL-5)?
Answer: > 100 µM (inactive)

Question: What about the GI50 (UACC-62) of the same compound?
Answer: > 100 µM (inactive)

Question: And the GI50 (HOP-62)?
Answer: > 100 µM (inactive)

Question: And the GI50 (M14)?
Answer: > 100 µM (inactive)

Question: And the GI50 (COLO 205)?
Answer: > 100 µM (inactive)

Question: What about the GI50 (U-251) of the same compound?
Answer: > 100 µM (inactive)

Question: What about the GI50 (OVCAR-8) of the same compound?
Answer: > 100 µM (inactive)

Question: And the GI50 (RPMI-8226)?
Answer: > 100 µM (inactive)

Question: And the GI50 (SK-OV-3)?
Answer: > 100 µM (inactive)

Question: What about the GI50 (UACC-257) of the same compound?
Answer: > 100 µM (inactive)

Question: What about the GI50 (A498) of the same compound?
Answer: > 100 µM (inactive)

Question: And the GI50 (MDA-MB-231)?
Answer: > 100 µM (inactive)

Question: What about the GI50 (SF-295) of the same compound?
Answer: > 100 µM (inactive)

Question: What about the GI50 (HL-60) of the same compound?
Answer: > 100 µM (inactive)

Question: What about the GI50 (SR) of the same compound?
Answer: > 100 µM (inactive)

Question: And the GI50 (SK-MEL-2)?
Answer: > 100 µM (inactive)

Question: What about the GI50 (K562) of the same compound?
Answer: > 100 µM (inactive)

Question: And the GI50 (SF-539)?
Answer: > 100 µM (inactive)

Question: And the GI50 (HCT-15)?
Answer: > 100 µM

Question: And the GI50 (NCI-H226)?
Answer: > 100 µM (inactive)

Question: What about the GI50 (SK-MEL-28) of the same compound?
Answer: > 100 µM (inactive)

Question: What about the GI50 (DU-145) of the same compound?
Answer: > 100 µM (inactive)

Question: What about the GI50 (PC-3) of the same compound?
Answer: > 100 µM (inactive)

Question: What about the GI50 (HT-29) of the same compound?
Answer: > 100 µM (inactive)

Question: What about the GI50 (HOP-92) of the same compound?
Answer: > 100 µM (inactive)

Question: And the GI50 (MOLT-4)?
Answer: > 100 µM (inactive)

Question: And the GI50 (MCF7)?
Answer: > 100 µM (inactive)

Question: What about the GI50 (OVCAR-3) of the same compound?
Answer: > 100 µM (inactive)

Question: And the GI50 (SW-620)?
Answer: > 100 µM (inactive)

Question: What about the GI50 (SN12C) of the same compound?
Answer: > 100 µM (inactive)

Question: What about the GI50 (LOX IMVI) of the same compound?
Answer: > 100 µM (inactive)

Question: And the GI50 (T47D)?
Answer: > 100 µM (inactive)

Question: And the GI50 (SNB-19)?
Answer: > 100 µM (inactive)

Question: And the GI50 (MDA-N)?
Answer: > 100 µM (inactive)

Question: What about the GI50 (SF-268) of the same compound?
Answer: > 100 µM (inactive)

Question: And the GI50 (CAKI-1)?
Answer: > 100 µM (inactive)

Question: What about the GI50 (IGROV-1) of the same compound?
Answer: > 100 µM (inactive)

Question: What about the GI50 (UO-31) of the same compound?
Answer: > 100 µM (inactive)
